Experimental data reported in PMC6009853, “Inhibition studies on a panel of human carbonic anhydrases with N1-substituted secondary sulfonamides incorporating thiazolinone or imidazolone-indole tails” (Journal of Enzyme Inhibition and Medicinal Chemistry, 2018).
Like-named read-outs stand apart in the source and are kept apart here.

Legend:
[1] = target: T1, hCA IV (Homo sapiens, UniProt P22748); assay: stopped-flow CO2 hydrase assay; format: biochemical
T1 construct: gene CA4; recombinant, obtained in-house; membrane-associated isoform

[2] = target: T2, hCA I (Homo sapiens, UniProt P00915); assay: stopped-flow CO2 hydrase assay; format: biochemical
T2 construct: gene CA1; recombinant, obtained in-house; cytosolic
Excerpt: stopped-flow CO2 hydrase assay on hCA I

[3] = target: T3, hCA IX (Homo sapiens, UniProt Q16790); assay: stopped-flow CO2 hydrase assay; format: biochemical
T3 construct: gene CA9; recombinant, obtained in-house; tumour-associated isoform
Excerpt: stopped-flow CO2 hydrase assay on hCA IX

[4] = target: T4, hCA II (Homo sapiens, UniProt P00918); assay: stopped-flow CO2 hydrase assay; format: biochemical
T4 construct: gene CA2; recombinant, obtained in-house
Excerpt: stopped-flow CO2 hydrase assay on hCA II

[5] = target: T3, hCA IX; assay: stopped-flow CO2 hydrase assay; format: biochemical; conditions: read-out: hCA I
[6] = stopped-flow CO2 hydrase assay; format: biochemical, Homo sapiens; conditions: read-out: hCA I

T1 sequence (P22748 19-284): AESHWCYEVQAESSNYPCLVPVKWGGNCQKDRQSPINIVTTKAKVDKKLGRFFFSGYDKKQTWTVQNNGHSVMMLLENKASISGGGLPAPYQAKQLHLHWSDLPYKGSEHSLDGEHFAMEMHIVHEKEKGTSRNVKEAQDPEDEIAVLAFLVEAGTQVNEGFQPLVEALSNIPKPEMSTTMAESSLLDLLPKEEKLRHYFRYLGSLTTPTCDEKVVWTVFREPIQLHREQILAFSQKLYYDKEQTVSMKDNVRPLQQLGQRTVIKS
T2 sequence (P00915 2-261): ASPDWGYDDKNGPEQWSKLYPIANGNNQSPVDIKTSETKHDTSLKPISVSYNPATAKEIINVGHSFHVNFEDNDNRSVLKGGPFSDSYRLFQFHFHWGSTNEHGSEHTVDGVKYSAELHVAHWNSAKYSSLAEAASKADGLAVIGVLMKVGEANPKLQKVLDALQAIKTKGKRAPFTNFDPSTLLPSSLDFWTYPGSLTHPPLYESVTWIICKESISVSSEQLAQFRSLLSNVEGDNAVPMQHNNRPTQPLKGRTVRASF

Ki ([1]; read-out: hCA IV) [µM] | Ki [2] [µM] | Ki [3] [µM] | Ki [4] [µM] | Ki ([1]; read-out: hCA II) [µM] | Ki [5] [µM] | Ki [6] [µM] | Structure (SMILES)
2.74 | 0.0885 | 0.327 | 0.576 | – | – | – | NS(=O)(=O)c1ccc(N=Cc2c[nH]c3ccccc23)cc1 [4a, 4-{[(1H-indol-3-yl)methylene]amino}benzenesulfonamide]
– | 8.58 | 1.62 | > 10 | > 10 | – | – | CC(=O)NS(=O)(=O)c1ccc(N=Cc2c[nH]c3ccccc23)cc1 [4b, N-{[4-(((1H-indol-3-yl)methylene)amino)phenyl]sulfonyl}acetamide]
> 10 | > 10 | – | – | – | > 10 | > 10 | O=S(=O)(Nc1ncccn1)c1ccc(N=Cc2c[nH]c3ccccc23)cc1 [4c]
> 10 | > 10 | – | – | – | > 10 | > 10 | O=S(=O)(Nc1ccccn1)c1ccc(N=Cc2c[nH]c3ccccc23)cc1 [4d]
> 10 | > 10 | – | – | – | > 10 | > 10 | O=S(=O)(Nc1nccs1)c1ccc(N=Cc2c[nH]c3ccccc23)cc1 [4e]
> 10 | 7.53 | 1.31 | 8.29 | – | – | – | N=C(N)NS(=O)(=O)c1ccc(N=Cc2c[nH]c3ccccc23)cc1 [4f, 4-{[(1H-indol-3-yl)methylene]amino}-N-carbamimidoylbenzenesulfonamide]
4.43 | 0.0964 | 0.308 | 0.0764 | – | – | – | NS(=O)(=O)c1ccc(NC2=NC(=O)C(=Cc3c[nH]c4ccccc34)S2)cc1 [7a, 4-{[5-((1H-indol-3-yl)methylene)-4-oxo-4,5-dihydrothiazol-2-yl]amino}benzenesulfonamide]
– | 7.98 | 0.778 | > 10 | > 10 | – | – | CC(=O)NS(=O)(=O)c1ccc(NC2=NC(=O)C(=Cc3c[nH]c4ccccc34)S2)cc1 [7b, N-{[4-((5-((1H-indol-3-yl)methylene)-4-oxo-4,5-dihydrothiazol-2-yl)amino)phenyl]sulfonyl} acetamide]
> 10 | > 10 | – | – | – | > 10 | > 10 | O=C1N=C(Nc2ccc(S(=O)(=O)Nc3ncccn3)cc2)SC1=Cc1c[nH]c2ccccc12 [7c]
> 10 | > 10 | – | – | – | > 10 | > 10 | O=C1N=C(Nc2ccc(S(=O)(=O)Nc3ccccn3)cc2)SC1=Cc1c[nH]c2ccccc12 [7d]
> 10 | > 10 | – | – | – | > 10 | > 10 | O=C1N=C(Nc2ccc(S(=O)(=O)Nc3nccs3)cc2)SC1=Cc1c[nH]c2ccccc12 [7e, 4-{[(5-((1H-indol-3-yl)methylene)-4-oxo-4,5-dihydrothiazol-2-yl)amino]-N-(thiazol-2-yl)] benzenesulfonamide]
> 10 | 9.07 | 1.4 | 7.18 | – | – | – | N=C(N)NS(=O)(=O)c1ccc(NC2=NC(=O)C(=Cc3c[nH]c4ccccc34)S2)cc1 [7f, 4-{[5-((1H-indol-3-yl)methylene)-4-oxo-4,5-dihydrothiazol-2-yl]amino}-N-carbamimidoyl benzenesulfonamide]
0.263 | – | 0.318 | – | – | – | – | CC(=O)n1cc(C=C2N=C(c3ccccc3)N(c3ccc(S(N)(=O)=O)cc3)C2=O)c2ccccc21 [10a, 4-[4-((1-Acetyl-1H-indol-3-yl)methylene)-5-oxo-2-phenyl-4,5-dihydro-1H-imidazol-1-yl]benzenesulfonamide]
> 10 | – | 1.47 | – | – | – | – | CC(=O)NS(=O)(=O)c1ccc(N2C(=O)C(=Cc3cn(C(C)=O)c4ccccc34)N=C2c2ccccc2)cc1 [10b, N-[(4–(4-((1-acetyl-1H-indol-3-yl)methylene)-5-oxo-2-phenyl-4,5-dihydro-1H-imidazol-1-yl)phenyl)sulfonyl]acetamide]
> 10 | > 10 | – | – | – | > 10 | > 10 | CC(=O)n1cc(C=C2N=C(c3ccccc3)N(c3ccc(S(=O)(=O)Nc4ncccn4)cc3)C2=O)c2ccccc21 [10c, 4-[4-((1-Acetyl-1H-indol-3-yl)methylene)-5-oxo-2-phenyl-4,5-dihydro-1H-imidazol-1-yl]-N-(pyrimidin-2-yl)benzenesulfonamide]
> 10 | > 10 | – | – | – | > 10 | > 10 | CC(=O)n1cc(C=C2N=C(c3ccccc3)N(c3ccc(S(=O)(=O)Nc4ccccn4)cc3)C2=O)c2ccccc21 [10d]
> 10 | > 10 | – | – | – | > 10 | > 10 | CC(=O)n1cc(C=C2N=C(c3ccccc3)N(c3ccc(S(=O)(=O)Nc4nccs4)cc3)C2=O)c2ccccc21 [10e, 4-[4-((1-Acetyl-1H-indol-3-yl)methylene)-5-oxo-2-phenyl-4,5-dihydro-1H-imidazol-1-yl]-N-(thiazol-2-yl)benzenesulfonamide]
> 10 | 5.76 | 1.64 | 3.82 | – | – | – | CC(=O)n1cc(C=C2N=C(c3ccccc3)N(c3ccc(S(=O)(=O)N=C(N)N)cc3)C2=O)c2ccccc21 [10f, 4-[4-((1-Acetyl-1H-indol-3-yl)methylene)-5-oxo-2-phenyl-4,5-dihydro-1H-imidazol-1-yl]-N-carbamimidoylbenzenesulfonamide]
2.77 | 0.0937 | 0.328 | 0.602 | – | – | – | COc1ccc(C2=NC(=Cc3cn(C(C)=O)c4ccccc34)C(=O)N2c2ccc(S(N)(=O)=O)cc2)cc1 [10g, 4-[4-((1-Acetyl-1H-indol-3-yl)methylene)-2–(4-methoxyphenyl)-5-oxo-4,5-dihydro-1H-imidazol-1-yl]benzenesulfonamide]
3.05 | 5.72 | 1.4 | 0.549 | – | – | – | COc1ccc(C2=NC(=Cc3cn(C(C)=O)c4ccccc34)C(=O)N2c2ccc(S(=O)(=O)NC(C)=O)cc2)cc1 [10h, N-[(4–(4-((1-acetyl-1H-indol-3-yl)methylene)-2–(4-methoxyphenyl)-5-oxo-4,5-dihydro-1H-imidazol-1-yl)phenyl)sulfonyl]acetamide]
> 10 | > 10 | – | – | – | > 10 | > 10 | COc1ccc(C2=NC(=Cc3cn(C(C)=O)c4ccccc34)C(=O)N2c2ccc(S(=O)(=O)Nc3ncccn3)cc2)cc1 [10i, 4-[4-((1-Acetyl-1H-indol-3-yl)methylene)-2–(4-methoxyphenyl)-5-oxo-4,5-dihydro-1H-imidazol-1-yl]-N-(pyrimidin-2-yl)benzenesulfonamide]
> 10 | > 10 | – | – | – | > 10 | > 10 | COc1ccc(C2=NC(=Cc3cn(C(C)=O)c4ccccc34)C(=O)N2c2ccc(S(=O)(=O)Nc3ccccn3)cc2)cc1 [10j, 4-[4-((1-Acetyl-1H-indol-3-yl)methylene)-2–(4-methoxyphenyl)-5-oxo-4,5-dihydro-1H-imidazol-1-yl]-N-(pyridin-2-yl)benzenesulfonamide]
> 10 | > 10 | – | – | – | > 10 | > 10 | COc1ccc(C2=NC(=Cc3cn(C(C)=O)c4ccccc34)C(=O)N2c2ccc(S(=O)(=O)Nc3nccs3)cc2)cc1 [10k, 4-[4-((1-Acetyl-1H-indol-3-yl)methylene)-2–(4-methoxyphenyl)-5-oxo-4,5-dihydro-1H-imidazol-1-yl]-N-(thiazol-2-yl)benzenesulfonamide]
– | 6.9 | 1.21 | > 10 | > 10 | – | – | COc1ccc(C2=NC(=Cc3cn(C(C)=O)c4ccccc34)C(=O)N2c2ccc(S(=O)(=O)NC(=N)N)cc2)cc1 [10l, 4-[4-((1-Acetyl-1H-indol-3-yl)methylene)-2–(4-methoxyphenyl)-5-oxo-4,5-dihydro-1H-imidazol-1-yl]-N-carbamimidoylbenzenesulfonamide]
